# Tested on: dendritic cells
# Conditions: FCCP incorporated in PLGA-G4 or PLGA-G4-cyclodextrin nanoparticles; FIG. 8
# Method: The prepared nanoparticles were tested for their ability to disrupt endosomes. Particles co-encapsulating the OVA peptide or GFP associated with the dendrimer were incubated at a concentration of 50 μg/ml with 1E5 BMDCs for 24 hours. Liposomal disruption was assessed both qualitatively via fluorescence microscopy of GFP in the cytosol or quantitatively by amount of OVA antigen presented via MHC Class I. Antigen presentation on Class I MHC takes place via cytosolic transport and OVA peptide/MHC Class I was detected specifically using the antibody 24D16-PE.
smiles,measurement,value
"N#CC(C#N)=NNc1ccc(OC(F)(F)F)cc1 [FCCP, carbonyl cyanide 4-(trifluoromethoxy) phenylhydrazone]",ability to disrupt endosomes,significantly enhances

# From patent US10265407B2, “Modular nanodevices for smart adaptable vaccines” (Yale University, priority 2007, dated 2019)
